According to patent US7850981B2, “Immuno-adjuvant PDT treatment of metastatic tumors” (QLT, Inc., priority 1999, dated 2010):

Experiments:
[1] = tested on: Lewis Lung Carcinoma (LLC); assay: In vitro lymphocyte proliferation assay (MTS) with lymph node cells of LLC-bearing mice treated with PDT or PDV; type: cell-based, C57B1/6 mice; details: mean±standard deviation; lymph nodes 7-10 days after therapy; cultured with LLC antigen; PDV n=7 (ConA responders)
Source text: In order to assess the potential usefulness of various adjuvants and treatment parameters in PDV, an in vitro lymphocyte proliferation assay was designed and employed in a murine tumor model. The assay measures tumour-specific lymphocyte (tumor immunity) responses from animals treated with PDT and PDT combined with adjuvant (PDV). This permits the rapid evaluation of various PDT/adjuvant administration protocols.
Female C57B1/6 mice are implanted subcutaneously on the shaved right flank with the Lewis Lung Carcinoma (LLC) cell line. When tumours develop to approximately 5 mm diameter animals are treated with PDT or PDV. PDT is performed by delivering 1.0 mg/kg verteporfin i.v. 30 min prior to illumination of 125 J/cm^2 delivered at 70 mW/cm^2 (treatment time=29 min, 4 sec). […] Animals are monitored for general health and re-growth of the tumour following therapy.
Seven to 10 days following therapy, animals are sacrificed and inguinal, axillary, cervical, and periaortic lymph nodes are aseptically removed. […] Following 3 to 5 days of culture, the degree of proliferation is assessed using 3-(4,5-dimethylthiazol-2-yl)-5-(3-carboxymethoxyphenyl)-2-(4-sulfophenyl)-2H-tetrazolium, inner salt (Owen's reagent, MTS, from PROMEGA™), a variation of the MTT assay which produces a soluble formazan product which absorbs light at 490 nm. […]

[2] = tested on: M1 (rhabdomyosarcoma); assay: M1 tumor response after PDT (verteporfin 1.0 mg/kg i.v. + light) with or without intratumoral DETOX B-SE; type: in vivo, mice
Procedure: DETOX™ B-SE (Stable Emulsion) (LOT # PD: 071899-575-114) is a 1.0% squalene oil-in-water emulsion containing 145 μg/mL cell wall skeleton (CWS) from Mycobacterium phlei and 25 μg/mL monophosphoryl lipid A (MPL) from Salmonella minnesota R595 [Corixa Inc.]. DETOX™ B-SE was prepared according to the manufacturer's recommendations. Two concentrations were prepared by diluting DETOX™ B-SE in sterile PBS: 1:10 (7.25 μg/mL CWS, 1.25 μg/mL MPL) or 1:2.5 (29.0 μg/mL CWS, 5.0 μg/mL MPL). Aliquots (50 μL) were drawn into a tuberculin syringe with a 27 gauge needle prior to intratumoral injection.
Mice used in the experiments described below were implanted intradermally with a suspension of 2×10^4 M1 (rhabdomyosarcoma) cells on the right flank. Approximately six to ten days after implantation, the site was shaved and tumor growth measured using vernier calipers. Only mice bearing tumors 4-6 mm in diameter were selected for use.
Mice treated with PDT or PDV received 1.0 mg/kg of Verteporfin for Injection (VFI) administered intravenously by tail vein injection. Immediately after injection, the mice were placed in a darkened row of an enclosed, ventilated animal rack (condo unit) for 30 minutes. After 30 minutes, each mouse was secured in a metal holder so that the tumor was centered in a 1.0 cm diameter exposure area. The tumor site was exposed to light from an argon pump dye laser for either 14 minutes, to deliver 75 J/cm^2, or 4 minutes and 40 seconds, to deliver 25 J/cm^2. The light doses selected were chosen to deliver either a high PDT dose (75 J/cm^2) or a low PDT dose (25 J/cm 2). The exposure time in seconds was determined by dividing the light dose (J/cm^2) by light Intensity (W/cm^2).
Immediately following illumination and while still immobilized in the metal holder, mice received a single intratumoral injection of 50 μL of the 1:10 dilution DETOX™ B-SE, designed to deliver the adjuvant to the center of the tumor mass. Mice in treatment Groups 2 and 5 received 50 μL of 1:2.5 dilution following PDT. Mice in treatment Groups 3 and 6 received PDT treatment, but not adjuvant. Mice in Group 7 remained untreated and were monitored for tumor growth only. Mice in treatment Groups 1 and 4 were treated with 50 μL of 1:10 dilution following PDT.

[3] = Optimal PDT (75 J/cm^2), day 3 post-PDT
[4] = Optimal PDT (75 J/cm^2), day 7 post-PDT
[5] = Optimal PDT (75 J/cm^2), day 10 post-PDT
[6] = Optimal PDT (75 J/cm^2), day 14 post-PDT
[7] = Optimal PDT (75 J/cm^2), day 17 post-PDT
[8] = Optimal PDT (75 J/cm^2), day 20 post-PDT
[9] = Sub-optimal PDT (25 J/cm^2), day 3 post-PDT
[10] = Sub-optimal PDT (25 J/cm^2), day 7 post-PDT
[11] = Sub-optimal PDT (25 J/cm^2), day 10 post-PDT
[12] = Sub-optimal PDT (25 J/cm^2), day 14 post-PDT
[13] = Sub-optimal PDT (25 J/cm^2), day 17 post-PDT
[14] = Sub-optimal PDT (25 J/cm^2), day 20 post-PDT

## benzoporphyrin derivative monoacid ring A [verteporfin]
[1]
  lymphocyte proliferation, percent of lymphocytes without antigen: 108±11%
[2]; [3]
  Survival (tumour less than 1 cm long, not euthanized): 100%
  Tumor-free mice: 100%
[2]; [4]
  Survival (tumour less than 1 cm long, not euthanized): 100%
  Tumor-free mice: 100%
[2]; [5]
  Survival (tumour less than 1 cm long, not euthanized): 100%
  Tumor-free mice: 100%
[2]; [6]
  Survival (tumour less than 1 cm long, not euthanized): 100%
  Tumor-free mice: 90%
[2]; [7]
  Survival (tumour less than 1 cm long, not euthanized): 100%
  Tumor-free mice: 90%
[2]; [8]
  Survival (tumour less than 1 cm long, not euthanized): 90%
  Tumor-free mice: 90%
[2]; [9]
  Survival (tumour less than 1 cm long, not euthanized): 100%
  Tumor-free mice: 100%
[2]; [10]
  Survival (tumour less than 1 cm long, not euthanized): 100%
  Tumor-free mice: 90%
[2]; [11]
  Survival (tumour less than 1 cm long, not euthanized): 100%
  Tumor-free mice: 80%
[2]; [12]
  Survival (tumour less than 1 cm long, not euthanized): 100%
  Tumor-free mice: 50%
[2]; [13]
  Survival (tumour less than 1 cm long, not euthanized): 80%
  Tumor-free mice: 70%
[2]; [14]
  Survival (tumour less than 1 cm long, not euthanized): 70%
  Tumor-free mice: 70%
[2]; low dose PDT (25 J/cm^2), adjuvant, where given, high dose (1:2.5)
  animals with tumors that were regressing or had regressed completely by Day 20: 2 out of 10 animals
